Measurements published in the NIST ThermoML archive (doi:10.1016/j.jct.2014.05.001).
± gives the expanded uncertainty stated by the source.

Conditions: Ring tensiometer

SMILES: O [water]
- surface tension liquid-gas (298.15 K): 72 ± 0.9 mN/m
- surface tension liquid-gas (303.15 K): 71.1 ± 0.9 mN/m
- surface tension liquid-gas (308.15 K): 70.3 ± 0.9 mN/m
- surface tension liquid-gas (313.15 K): 69.4 ± 0.9 mN/m
